Data from ChEMBL document CHEMBL5724914, “Linking interpersonal differences in gut microbiota composition and drug biotransformation activity” (2024).

Experiments:
[1] = (§1) The drug is tested on WLS-052 corresponding to human gut metagenome with ENA study accession number: PRJEB37062 and ENA sample accession number: ERS12561747 for biotransformation under anaerobic condition. The drug concentrations were measured over 9 timepoints collected between 0 and 24 hours of incubation by liquid-chromatography-coupled mass spectrometry (LC–MS); conditions: 2 µM
[2] = human gut metagenome, 24 h, 2 µM
[3] = as §1, with “Z-020” for “WLS-052”, “rabbit” for “human”, “ERS12561819” for “ERS12561747”; conditions: 2 µM
[4] = as §1, with “Z-014” for “WLS-052”, “rat” for “human”, “ERS12561814” for “ERS12561747”; conditions: 2 µM
[5] = human gut metagenome, 24 h, 2 µM; remark: listed apart in the source
[6] = as §1, with “WLS-310” for “WLS-052”, “ERS12561785” for “ERS12561747”; conditions: 2 µM
[7] = as §1, with “Z-013” for “WLS-052”, “rabbit” for “human”, “ERS12561813” for “ERS12561747”; conditions: 2 µM
[8] = human gut metagenome, 24 h, 2 µM; remark: listed apart in the source
[9] = as §1, with “Z-003” for “WLS-052”, “pig” for “human”, “ERS12561803” for “ERS12561747”; conditions: 2 µM
[10] = as §1, with “WLS-077” for “WLS-052”, “ERS12561750” for “ERS12561747”; conditions: 2 µM
[11] = human gut metagenome, 24 h, 2 µM; remark: listed apart in the source
[12] = as §1, with “Z-029” for “WLS-052”, “rat” for “human”, “ERS12561828” for “ERS12561747”; conditions: 2 µM
[13] = human gut metagenome, 24 h, 2 µM; remark: listed apart in the source
[14] = human gut metagenome, 24 h, 2 µM; remark: listed apart in the source
[15] = as §1, with “Z-025” for “WLS-052”, “rabbit” for “human”, “ERS12561824” for “ERS12561747”; conditions: 2 µM
[16] = human gut metagenome, 24 h, 2 µM; remark: listed apart in the source
[17] = human gut metagenome, 24 h, 2 µM; remark: listed apart in the source
[18] = as §1, with “WLS-098” for “WLS-052”, “ERS12561754” for “ERS12561747”; conditions: 2 µM
[19] = as §1, with “WLS-350” for “WLS-052”, “ERS12561789” for “ERS12561747”; conditions: 2 µM
[20] = as §1, with “WLS-010” for “WLS-052”, “ERS12561743” for “ERS12561747”; conditions: 2 µM
Further: call rule not given here.

| Bacterial Biotransformation [1] | Bacterial Biotransformation [2] | Bacterial Biotransformation [3] | Bacterial Biotransformation [4] | Bacterial Biotransformation [5] | Bacterial Biotransformation [6] | Bacterial Biotransformation [7] | Bacterial Biotransformation [8] | Bacterial Biotransformation [9] | Bacterial Biotransformation [10] | Bacterial Biotransformation [11] | Bacterial Biotransformation [12] | Bacterial Biotransformation [13] | Bacterial Biotransformation [14] | Bacterial Biotransformation [15] | Bacterial Biotransformation [16] | Bacterial Biotransformation [17] | Bacterial Biotransformation [18] | Bacterial Biotransformation [19] | Bacterial Biotransformation [20] | Structure (SMILES) |
| --- | --- | --- | --- | --- | --- | --- | --- | --- | --- | --- | --- | --- | --- | --- | --- | --- | --- | --- | --- | --- |
| Compound metabolized | Compound metabolized | Compound metabolized | Compound NOT metabolized | Compound metabolized | Compound metabolized | Compound metabolized | Compound metabolized | Compound NOT metabolized | Compound metabolized | Compound metabolized | Compound NOT metabolized | Compound metabolized | Compound metabolized | Compound NOT metabolized | Compound metabolized | Compound metabolized | Compound metabolized | Compound metabolized | Compound metabolized | CC(=O)OCC(=O)[C@@]1(OC(C)=O)[C@@H](C)C[C@H]2[C@@H]3C[C@H](F)C4=CC(=O)C=C[C@]4(C)[C@@]3(F)[C@@H](O)C[C@@]21C [DIFLORASONE DIACETATE] |
| Compound NOT metabolized | Compound NOT metabolized | Compound NOT metabolized | Compound NOT metabolized | Compound NOT metabolized | Compound metabolized | Compound NOT metabolized | Compound metabolized | Compound NOT metabolized | Compound NOT metabolized | Compound NOT metabolized | Compound NOT metabolized | Compound metabolized | Compound NOT metabolized | Compound NOT metabolized | Compound NOT metabolized | Compound metabolized | Compound metabolized | Compound NOT metabolized | Compound NOT metabolized | CN(C)CCC=C1c2ccccc2COc2ccccc21 [DOXEPIN] |
| Compound metabolized | Compound NOT metabolized | Compound metabolized | Compound NOT metabolized | Compound metabolized | Compound metabolized | Compound metabolized | Compound metabolized | Compound metabolized | Compound metabolized | Compound NOT metabolized | Compound NOT metabolized | Compound metabolized | Compound metabolized | Compound NOT metabolized | Compound metabolized | Compound metabolized | Compound NOT metabolized | Compound NOT metabolized | Compound metabolized | C[C@]12CCC(=O)C=C1[C@@H]1C[C@@H]1[C@H]1[C@@H]3[C@@H]4C[C@@H]4[C@@]4(CCC(=O)O4)[C@@]3(C)CC[C@@H]12 [DROSPIRENONE] |
| Compound metabolized | Compound metabolized | Compound metabolized | Compound metabolized | Compound NOT metabolized | Compound metabolized | Compound metabolized | Compound metabolized | Compound metabolized | Compound metabolized | Compound metabolized | Compound NOT metabolized | Compound metabolized | Compound metabolized | Compound metabolized | Compound metabolized | Compound metabolized | Compound metabolized | Compound metabolized | Compound metabolized | C#C[C@]1(OC(C)=O)CC[C@H]2[C@@H]3CCC4=C[C@@H](OC(C)=O)CC[C@@H]4[C@H]3CC[C@@]21C [ETHYNODIOL DIACETATE] |
| Compound NOT metabolized | Compound NOT metabolized | Compound NOT metabolized | Compound NOT metabolized | Compound NOT metabolized | Compound NOT metabolized | Compound NOT metabolized | Compound NOT metabolized | Compound NOT metabolized | Compound NOT metabolized | Compound NOT metabolized | Compound NOT metabolized | Compound NOT metabolized | Compound NOT metabolized | Compound NOT metabolized | Compound NOT metabolized | Compound NOT metabolized | Compound NOT metabolized | Compound NOT metabolized | Compound NOT metabolized | N=C(N)NC(=O)Cc1c(Cl)cccc1Cl [GUANFACINE] |
| Compound NOT metabolized | Compound NOT metabolized | Compound NOT metabolized | Compound NOT metabolized | Compound NOT metabolized | Compound NOT metabolized | Compound NOT metabolized | Compound metabolized | Compound NOT metabolized | Compound NOT metabolized | Compound NOT metabolized | Compound NOT metabolized | Compound NOT metabolized | Compound NOT metabolized | Compound metabolized | Compound NOT metabolized | Compound NOT metabolized | Compound metabolized | Compound NOT metabolized | Compound NOT metabolized | Nc1nc(N)nc(-c2cc(Cl)ccc2Cl)n1.O=C(O)/C=C\C(=O)O [IRSOGLADINE MALEATE] |
| Compound NOT metabolized | Compound NOT metabolized | Compound NOT metabolized | Compound NOT metabolized | Compound metabolized | Compound metabolized | Compound NOT metabolized | Compound metabolized | Compound NOT metabolized | Compound NOT metabolized | Compound NOT metabolized | Compound NOT metabolized | Compound metabolized | Compound metabolized | Compound NOT metabolized | Compound NOT metabolized | Compound metabolized | Compound metabolized | Compound NOT metabolized | Compound NOT metabolized | CN1CCC(=C2c3ccccc3CC(=O)c3sccc32)CC1.O=C(O)/C=C/C(=O)O [KETOTIFEN FUMARATE] |

| Structure (SMILES) | Bacterial Biotransformation [1] | Bacterial Biotransformation [2] | Bacterial Biotransformation [3] | Bacterial Biotransformation [4] | Bacterial Biotransformation [5] | Bacterial Biotransformation [6] | Bacterial Biotransformation [7] | Bacterial Biotransformation [8] | Bacterial Biotransformation [9] | Bacterial Biotransformation [10] | Bacterial Biotransformation [11] | Bacterial Biotransformation [12] | Bacterial Biotransformation [13] | Bacterial Biotransformation [14] | Bacterial Biotransformation [15] | Bacterial Biotransformation [16] | Bacterial Biotransformation [17] | Bacterial Biotransformation [18] | Bacterial Biotransformation [19] | Bacterial Biotransformation [20] |
| --- | --- | --- | --- | --- | --- | --- | --- | --- | --- | --- | --- | --- | --- | --- | --- | --- | --- | --- | --- | --- |
| CC(C)c1c(CN(C)C(C)Cc2ccccc2)n(C)n(-c2ccccc2)c1=O (stereo not given) [FAMPROFAZONE] | Compound metabolized | Compound metabolized | Compound NOT metabolized | Compound metabolized | Compound metabolized | Compound metabolized | Compound metabolized | Compound metabolized | Compound metabolized | Compound metabolized | Compound metabolized | Compound NOT metabolized | Compound metabolized | Compound metabolized | Compound NOT metabolized | Compound metabolized | Compound metabolized | Compound metabolized | Compound metabolized | Compound metabolized |
